# Assay results from PMC12371494, “Discovery of YTHDF2 Ligands by Fragment-Based Design” (ACS Bio & Med Chem Au, 2025).
# Experiments:
# GST-YTHDF2 = biological target: T1, GST-YTHDF2 (Homo sapiens, UniProt Q9Y5A9); test: HTRF-based binding assay, competition with m6A-oligoRNA, DF2; conditions: for Single-dose residual signal at 100 µM, DF2: HTRF, 100 µM compound, normalized; for LE (ligand efficiency, DF2): LE = -RT ln IC50/HAC from HTRF IC50; for IC50: dose-response, competitor m6A-oligoRNA, read-out: DF2 IC50 (HTRF assay); for Improvement of HTRF IC50 compared to fragment 14: HTRF DF2
# T1 construct: made in house
# T1 sequence (Q9Y5A9 1-579): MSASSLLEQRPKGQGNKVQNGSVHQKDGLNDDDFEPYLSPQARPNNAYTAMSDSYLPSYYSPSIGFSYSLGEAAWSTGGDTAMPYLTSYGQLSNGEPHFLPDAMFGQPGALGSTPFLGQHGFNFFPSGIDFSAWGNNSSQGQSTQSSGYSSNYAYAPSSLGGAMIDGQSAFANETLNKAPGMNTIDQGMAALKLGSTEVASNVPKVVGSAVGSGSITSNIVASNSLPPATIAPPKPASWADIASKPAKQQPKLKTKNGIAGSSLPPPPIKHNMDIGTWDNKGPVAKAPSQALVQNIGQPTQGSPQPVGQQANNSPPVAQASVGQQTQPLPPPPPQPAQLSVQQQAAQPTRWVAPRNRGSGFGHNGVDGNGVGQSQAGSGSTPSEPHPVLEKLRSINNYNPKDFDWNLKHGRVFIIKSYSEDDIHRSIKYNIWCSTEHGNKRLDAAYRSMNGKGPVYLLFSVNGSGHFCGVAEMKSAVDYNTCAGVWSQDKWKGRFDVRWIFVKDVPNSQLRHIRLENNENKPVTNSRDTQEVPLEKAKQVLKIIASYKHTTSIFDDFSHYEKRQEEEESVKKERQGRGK
# GST-YTHDF3 = biological target: T2, GST-YTHDF3 (Homo sapiens, UniProt Q7Z739); test: HTRF-based binding assay, DF3; conditions: for Single-dose residual signal at 100 µM, DF3: 100 µM compound, normalized; for IC50: dose-response
# T2 construct: made in house
# T2 sequence (Q7Z739 1-585): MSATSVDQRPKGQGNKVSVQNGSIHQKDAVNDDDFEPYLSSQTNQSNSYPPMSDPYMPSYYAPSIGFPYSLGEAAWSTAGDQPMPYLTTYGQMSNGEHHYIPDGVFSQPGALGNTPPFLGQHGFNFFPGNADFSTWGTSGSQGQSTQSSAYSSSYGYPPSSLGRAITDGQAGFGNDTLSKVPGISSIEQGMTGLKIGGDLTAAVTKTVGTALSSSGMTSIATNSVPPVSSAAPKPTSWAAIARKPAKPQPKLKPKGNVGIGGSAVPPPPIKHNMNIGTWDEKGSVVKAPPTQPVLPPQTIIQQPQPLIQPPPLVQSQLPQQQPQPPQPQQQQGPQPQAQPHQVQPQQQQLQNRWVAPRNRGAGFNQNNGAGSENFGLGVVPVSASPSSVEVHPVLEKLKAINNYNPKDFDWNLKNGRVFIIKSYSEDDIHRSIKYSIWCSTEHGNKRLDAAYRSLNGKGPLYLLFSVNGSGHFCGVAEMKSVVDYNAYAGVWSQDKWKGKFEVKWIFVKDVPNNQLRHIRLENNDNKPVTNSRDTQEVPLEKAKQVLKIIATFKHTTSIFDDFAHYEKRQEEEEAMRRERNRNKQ
# Method: The HTRF-based assay was employed to evaluate the selectivity of the series against other DF proteins.
# A dose–response experiment on DF1 and DF3 was conducted for compounds 17, 18, 23, and 27 (Figure S5). Compounds 17, 18, and 27 are active on three DF proteins. […] In contrast, compound 23 is selective for DF2, with residual signals (at the highest employed concentration of 62.5 μM) of 51 and 87% for DF1 and DF3, respectively.
# GST-YTHDC1, GST-YTHDF1, GST-YTHDF2, and GST-YTHDF3 were purified as previously reported. The HTRF assay was assembled as detailed in ref with the only difference being that the starting concentration of the dose–response experiments used for the IC50 determination was variated dependently from the tested compound. The same protocol was applied to the four proteins. The competitive inhibition data of GST-YTHDF1 (single dose experiment at 100 μM compound concentration and dose–response curves), GST-YTHDF3 (single dose experiment at 100 μM compound concentration and dose–response curves), and GST-YTHDF2 (single dose experiment at 100 μM compound concentration) were normalized as described in ref to mitigate interference. The signal was measured as described in ref .
# YTHDF2 = biological target: T3, YTHDF2 (Homo sapiens, UniProt Q9Y5A9); test: DNA-fluorescence polarization (FP) competition assay, DF2; assay type: binding
# T3 sequence (Q9Y5A9 1-579): T1 sequence (Q9Y5A9 1-579)
# Method: An FP competition assay was used to further validate the binding of the compounds to DF2. The main difference with respect to a previously published FP assay is the use of an oligo-DNA as competitor ligand (see Materials and Methods section). […] These differences might originate from the varying conditions in the two assays, such as the competitor mRNA (5′-biotin-[…](m6A)-CUAAGCU-3′) in HTRF and DNA (5′-FAM-[…](m6A)-CTAAGCT-3′) in FP, the salt concentration (150 mM NaCl and 100 mM KF in HTRF, and 150 mM NaCl in FP), and the pH (7.5 in HTRF and 7.4 in FP). The FP-based assay was also employed to assess the selectivity against DC1 and DC2 (see Selectivity section).
# For fluorescence polarization (FP) experiments, a 5′-fluorescein-labeled m^6A-DNA probe (5′-FAM-[…](m6A)-CTAAGCT-3′) was synthesized by Microsynth AG.
# The final concentration of the fluorescein-labeled DNA was kept constant at 3 nM. For YTHDC2 measurements, the protein concentration was set to 25 nM, while for YTHDF2 measurements, it was set to 10 nM, and for YTHDC1, it was set at 15 nM. The compound concentration was serially diluted to obtain the dose–response curve. The competition experiments were conducted in a final volume of 20 μL in a buffer containing 20 mM Tris–HCl (pH 7.4), 150 mM NaCl, and 0.01% bovine serum albumin (BSA), using a 384-well black flat-bottomed microplate (Corning 3575).
# After incubating the mixture for 1 h, the anisotropy values were measured using a Tecan SPARK plate reader with 485/20 nm excitation and 535/25 nm emission polarization filters, suitable for fluorescein, at 25 °C. To obtain the equilibrium dissociation constant (K d), the IC50 values were first derived by fitting a dose–response curve to the data using nonlinear regression analysis in GraphPad Prism. These IC50 values were then converted to K d by using the Cheng–Prusoff equation: Kd=IC50/1+[L]/Kdprobe
# IC50 is the observed value from FP assay, [L] is the probe concentration used, and K d ^probe is the binding affinity of probe for the target.
SMILES,"Single-dose residual signal at 100 µM, DF2 (GST-YTHDF2)","LE (ligand efficiency, DF2) (GST-YTHDF2)",IC50 (GST-YTHDF2),"Single-dose residual signal at 100 µM, DF3 (GST-YTHDF3; HTRF)",Kd (YTHDF2),Improvement of HTRF IC50 compared to fragment 14 (GST-YTHDF2),IC50 (GST-YTHDF3),IC50 (YTHDF2; FP IC50 before conversion (Kd = IC50/1.6)),Potency for DF2 relative to 6-cyclopropyluracil (GST-YTHDF2; HTRF IC50 values),"Residual signal DF3 at highest concentration (GST-YTHDF3; HTRF, 62.5 μM compound)"
O=c1[nH]c(=S)[nH]c2sccc12 [Compound 14],8%,0.60 kcal/(mol HAC),18 µM,23%,3.8 µM,–,–,–,–,–
O=c1[nH]c(=S)[nH]c2scc(-c3ccc(O)cc3)c12 [Compound 19],5%,0.34 kcal/(mol HAC),32 µM,13%,1.3 µM,–,–,2 µM,–,–
CC(=O)c1sc2[nH]c(=S)[nH]c(=O)c2c1C [Compound 20],3%,0.45 kcal/(mol HAC),13 µM,12%,3.1 µM,–,–,–,–,–
Cc1c(C(=O)NCc2cccnc2)sc2[nH]c(=S)[nH]c(=O)c12 [Compound 23],9%,0.31 kcal/(mol HAC),11 µM,33%,1.3 µM,–,> 60 µM,–,15 factor,87%
Cc1c(C(=O)NCc2cccc(C(=O)O)c2)sc2[nH]c(=S)[nH]c(=O)c12 [Compound 24],3%,0.26 kcal/(mol HAC),20 µM,12%,2.5 µM,–,–,–,–,–

# These reach a lower IC50 (GST-YTHDF2). Values come first.
"Single-dose residual signal at 100 µM, DF2 (GST-YTHDF2)","LE (ligand efficiency, DF2) (GST-YTHDF2)",IC50 (GST-YTHDF2),"Single-dose residual signal at 100 µM, DF3 (GST-YTHDF3; HTRF)",Kd (YTHDF2),Improvement of HTRF IC50 compared to fragment 14 (GST-YTHDF2),IC50 (GST-YTHDF3),IC50 (YTHDF2; FP IC50 before conversion (Kd = IC50/1.6)),Potency for DF2 relative to 6-cyclopropyluracil (GST-YTHDF2; HTRF IC50 values),"Residual signal DF3 at highest concentration (GST-YTHDF3; HTRF, 62.5 μM compound)",SMILES
4%,0.35 kcal/(mol HAC),4.7 µM,7%,1.2 µM,3 fold,21 µM,–,–,–,COC(=O)c1ccc(-c2csc3[nH]c(=S)[nH]c(=O)c23)cc1 [Compound 17]
4%,0.36 kcal/(mol HAC),5.4 µM,19%,0.61 µM,3 fold,53 µM,–,–,–,O=C(O)c1ccc(-c2csc3[nH]c(=S)[nH]c(=O)c23)cc1 [Compound 18]
5%,0.42 kcal/(mol HAC),6.3 µM,10%,4.4 µM,–,–,–,–,–,CCOC(=O)c1sc2[nH]c(=S)[nH]c(=O)c2c1C [Compound 21]
5%,0.31 kcal/(mol HAC),10 µM,18%,10 µM,–,–,–,–,–,Cc1c(C(=O)NCc2ccccc2)sc2[nH]c(=S)[nH]c(=O)c12 [Compound 22]
